# Experimental data published in ChEMBL document CHEMBL4052746, “Flavonoid glycosides from Barringtonia acutangula” (Bioorg Med Chem Lett, 2017).
# Columns and labels:
# RAW264.7 [1] = test: Antiinflammatory activity in mouse RAW264.7 cells assessed as inhibition of LPS-induced NO production pretreated for 30 mins followed by LPS stimulation for 24 hrs by Griess assay; type: functional, cell-based
# RAW264.7 [2] = test: Cytotoxicity against mouse RAW264.7 cells assessed as reduction in cell viability by MTT assay; type: cell-based
structure (smiles),measurement,setting,value
O=C(OC[C@H]1O[C@@H](Oc2c(-c3ccc(O)c(O)c3)oc3cc(O)cc(O)c3c2=O)[C@H](O)[C@@H](O)[C@H]1O)c1ccc(O)cc1,IC50,RAW264.7 [1],20 µM
same,Activity,RAW264.7 [2],Non-Toxic
